The values below are quoted from earlier work in patent US20190167706A1, “Solid Pharmaceutical Composition Comprising Amorphous Sofosbuvir” (Sandoz AG, priority 2016, published 2019).

Molecules are shown by their SMILES.

As to `CC(C)OC(=O)[C@H](C)N[P@](=O)(OC[C@H]1O[C@@H](n2ccc(=O)[nH]c2=O)[C@](C)(F)[C@@H]1O)Oc1ccccc1` [Amorphous sofosbuvir, (S)-isopropyl 2-(((S)-(((2R,3R,4R,5R)-5-(2,4-dioxo-3,4-dihydropyrimidin-1(2H)-yl)-4-fluoro-3-hydroxy-4-methyltetrahydrofuran-2-yl)methoxy)(phenoxy)phosphoryl)amino)propanoate], for the setting “amorphous form, compared to crystalline forms”, the “relative humidity at which the substance deliquesces” value is “above 50%”.
As for `CC(C)OC(=O)[C@H](C)N[P@](=O)(OC[C@H]1O[C@@H](n2ccc(=O)[nH]c2=O)[C@](C)(F)[C@@H]1O)Oc1ccccc1` [sofosbuvir, (S)-isopropyl 2-(((S)-(((2R,3R,4R,5R)-5-(2,4-dioxo-3,4-dihydropyrimidin-1(2H)-yl)-4-fluoro-3-hydroxy-4-methyltetrahydrofuran-2-yl)methoxy)(phenoxy)phosphoryl)amino)propanoate], the “moisture stability: deliquescence under stress conditions” value (40° C. and a relative humidity (RH) of 75%) was “deliquesces after a few hours”.
